# Measurements as given in PubChem BioAssay AID1963426 (Molecular Pharmacology Branch, DTP, NCI, 2024).
# Test system: 186277-243-T-J2-PDC complex spheroid growth, % test/control
# Assay: Anticancer human tumor 186277-243-T-J2-PDC patient-derived colon adenocarcinoma cell line growth inhibition [Asc]
# Details: for IC50: curve of first compound; for viability, T/C: stronger effect = lower value
# In short: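 Complex solid-tumor spheroids incorporating human endothelial and mesenchymal stem cells received single agents or combinations over half-log dilution ranges anchored to clinical Cmax.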
# 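Further: spheroids exposed to agents for 7 days.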
# 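Wherever viability, T/C is given: 100% = DMSO vehicle control wells.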
structure (smiles),measurement,setting,value
CCN1C(C(=O)NC23CCC(C(=O)O)(CC2)CC3)C(c2cccc(Cl)c2F)C2(C(=O)Nc3cc(Cl)ccc32)C12CCCCC2 (stereo not given) + CNC(C)C(=O)NC1CN(S(=O)(=O)c2cccc(S(=O)(=O)N3CCC4CCC(C(=O)NC(c5ccccc5)c5ccccc5)N4C(=O)C(NC(=O)C(C)NC)C3)c2)CCC2CCC(C(=O)NC(c3ccccc3)c3ccccc3)N2C1=O,IC50,second compound 0.01 µM,> 3000 nM
same,IC50,second compound 0.0316 µM,2690 nM
same,IC50,second compound 0.1 µM,2820 nM
same,IC50,second compound 0.316 µM,2690 nM
same,IC50,second compound 1 µM,2390 nM
same,"viability, T/C","second compound 0.01 µM, first compound 0.00949 µM",116%
same,"viability, T/C","second compound 0.01 µM, first compound 0.03 µM",147%
same,"viability, T/C","second compound 0.01 µM, first compound 0.0949 µM",155%
same,"viability, T/C","second compound 0.01 µM, first compound 0.3 µM",115%
same,"viability, T/C","second compound 0.01 µM, first compound 0.949 µM",76.7%
same,"viability, T/C","second compound 0.01 µM, first compound 3 µM",53.6%
same,"viability, T/C","second compound 0.0316 µM, first compound 0.00949 µM",112%
same,"viability, T/C","second compound 0.0316 µM, first compound 0.03 µM",141%
same,"viability, T/C","second compound 0.0316 µM, first compound 0.0949 µM",152%
same,"viability, T/C","second compound 0.0316 µM, first compound 0.3 µM",125%
same,"viability, T/C","second compound 0.0316 µM, first compound 0.949 µM",84.5%
same,"viability, T/C","second compound 0.0316 µM, first compound 3 µM",46.3%
same,"viability, T/C","second compound 0.1 µM, first compound 0.00949 µM",131%
same,"viability, T/C","second compound 0.1 µM, first compound 0.03 µM",143%
same,"viability, T/C","second compound 0.1 µM, first compound 0.0949 µM",147%
same,"viability, T/C","second compound 0.1 µM, first compound 0.3 µM",122%
same,"viability, T/C","second compound 0.1 µM, first compound 0.949 µM",76.5%
same,"viability, T/C","second compound 0.1 µM, first compound 3 µM",48.2%
same,"viability, T/C","second compound 0.316 µM, first compound 0.00949 µM",129%
same,"viability, T/C","second compound 0.316 µM, first compound 0.03 µM",149%
same,"viability, T/C","second compound 0.316 µM, first compound 0.0949 µM",149%
same,"viability, T/C","second compound 0.316 µM, first compound 0.3 µM",118%
same,"viability, T/C","second compound 0.316 µM, first compound 0.949 µM",75%
same,"viability, T/C","second compound 0.316 µM, first compound 3 µM",46.8%
same,"viability, T/C","second compound 1 µM, first compound 0.00949 µM",134%
same,"viability, T/C","second compound 1 µM, first compound 0.03 µM",132%
same,"viability, T/C","second compound 1 µM, first compound 0.0949 µM",159%
same,"viability, T/C","second compound 1 µM, first compound 0.3 µM",118%
same,"viability, T/C","second compound 1 µM, first compound 0.949 µM",74.9%
same,"viability, T/C","second compound 1 µM, first compound 3 µM",43.5%
